Results reported in patent US20240002375A1, “2-(INDAZOL-5-YL)-6-(PIPERIDIN-4-YL)-1,7-NAPHTHYRIDINE DERIVATIVES AND RELATED COMPOUNDS AS MODULATORS FOR SPLICING NUCLEIC ACIDS AND FOR THE TRE” (REMIX THERAPEUTICS INC., priority 2020, published 2024).

Columns and labels:
Type in all cases: cell-based
Target C CJ mRNA = experiment: Gene panel canonical junction qPCR splicing assay, Target C; conditions: Table 4, read-out: Target C IC50 (decrease in CJ mRNA levels)
Method in brief: (§1)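 A673 or K562 cells treated with compound; canonical-junction mRNA measured by RT-qPCR with junction-spanning primer/probe sets, normalized to GAPDH, GUSB or PPIA and DMSO (2^−ΔΔCt). IC50 for CJ decrease from 4-parameter logistic fit of percentage response.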

HTT CJ mRNA = experiment: Gene panel canonical junction qPCR splicing assay, HTT; conditions: Table 4, read-out: HTT IC50 (decrease in CJ mRNA levels)
Method in brief: as §1

HTT mRNA = experiment: Splicing assay (RT-qPCR) of HTT mRNA alternative junction (AJ) and canonical junction (CJ); conditions: A673 or K562 cells, 24 hours; for IC50: decrease in CJ mRNA, read-out: HTT CJ IC50; for AC50: increase in AJ mRNA, read-out: HTT AJ AC50
Method in brief: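 A673 (adherent, 24 h pre-plating) or K562 cells treated 24 h at 37 °C with an 11-point 3-fold dilution series, top 10 uM, DMSO ≤0.25%. Lysates analysed by one-step RT-qPCR for HTT canonical (CJ) and alternative-exon (AJ) junctions, normalised to PPIA (A673) or GAPDH/GUSB (K562).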

SMN2 CJ mRNA = experiment: Gene panel canonical junction qPCR splicing assay, SMN2; conditions: Table 4, read-out: SMN2 IC50 (decrease in CJ mRNA levels)
Method in brief: as §1

Structure (SMILES)	IC50 (Target C CJ mRNA)	IC50 (HTT CJ mRNA)	IC50 (HTT mRNA)	AC50 (HTT mRNA)	IC50 (SMN2 CJ mRNA)
Cn1cc2cc(-c3ccc4c(F)c(C5CCNCC5)ccc4n3)c(O)cc2n1 [Compound 115, 5-[5-fluoro-6-(piperidin-4-yl)quinolin-2-yl]-2-methylindazol-6-ol]	1000 to 10000 nM	1000 to 10000 nM	1000 to 10000 nM	1000 to 10000 nM	< 100 nM
CN1CCN(c2ccc3nc(-c4cc5cn(C)nc5cc4O)ccc3n2)CC1 [Compound 116, 2-methyl-5-[6-(4-methylpiperazin-1-yl)-1,5-naphthyridin-2-yl]indazol-6-ol]	1000 to 10000 nM	1000 to 10000 nM	1000 to 10000 nM	1000 to 10000 nM	< 100 nM
CC1CN(c2ccc3nc(-c4cc5cn(C)nc5cc4O)ccc3n2)CCN1 (centres unmarked) [Compound 117, 2-methyl-5-[6-(3-methylpiperazin-1-yl)-1,5-naphthyridin-2-yl]indazol-6-ol]	1000 to 10000 nM	1000 to 10000 nM	1000 to 10000 nM	1000 to 10000 nM	< 100 nM
CC1CN(c2ccc3nc(-c4cc5cn(C)nc5cc4O)ccc3n2)CCN1C (centres unmarked) [Compound 118, 5-[6-(3,4-dimethylpiperazin-1-yl)-1,5-naphthyridin-2-yl]-2-methylindazol-6-ol]	1000 to 10000 nM	1000 to 10000 nM	1000 to 10000 nM	1000 to 10000 nM	< 100 nM
CCC1CN(c2ccc3nc(-c4cc5cn(C)nc5cc4O)ccc3n2)CCN1 (centres unmarked) [Compound 119, 5-[6-(3-ethylpiperazin-1-yl)-1,5-naphthyridin-2-yl]-2-methylindazol-6-ol]	1000 to 10000 nM	100 to 1000 nM	100 to 1000 nM	1000 to 10000 nM	< 100 nM
Cn1cc2cc(-c3ccc4nc(N5CCNC(C)(C)C5)ccc4n3)c(O)cc2n1 [Compound 120, 5-[6-(3,3-dimethylpiperazin-1-yl)-1,5-naphthyridin-2-yl]-2-methylindazol-6-ol]	1000 to 10000 nM	1000 to 10000 nM	1000 to 10000 nM	1000 to 10000 nM	< 100 nM
Cn1cc2cc(-c3ccc4nc(N5CCNC6(CC6)C5)ccc4n3)c(O)cc2n1 [Compound 121, 5-(6-[4,7-diazaspiro[2.5]octan-7-yl]-1,5-naphthyridin-2-yl)-2-methylindazol-6-ol]	1000 to 10000 nM	1000 to 10000 nM	1000 to 10000 nM	1000 to 10000 nM	1000 to 10000 nM
Cn1cc2cc(-c3ccc4nc(N5CC(C)(C)NC(C)(C)C5)ccc4n3)c(O)cc2n1 [Compound 122, 2-methyl-5-[6-(3,3,5,5-tetramethylpiperazin-1-yl)-1,5-naphthyridin-2-yl]indazol-6-ol]	> 10000 nM	1000 to 10000 nM	> 10000 nM	> 10000 nM	> 10000 nM
CN1CC2(C1)CN(c1ccc3nc(-c4cc5cn(C)nc5cc4O)ccc3n1)C2 [Compound 123, 2-methyl-5-(6-[6-methyl-2,6-diazaspiro[3.3]heptan-2-yl]-1,5-naphthyridin-2-yl) indazol-6-ol]	< 100 nM	100 to 1000 nM	< 100 nM	100 to 1000 nM	< 100 nM
Cn1cc2cc(-c3ccc4nc(N5CC6(CNC6)C5)ccc4n3)c(O)cc2n1 [Compound 124, 5-(6-[2,6-diazaspiro[3.3]heptan-2-yl]-1,5-naphthyridin-2-yl)-2-methylindazol-6-ol]	100 to 1000 nM	< 100 nM	< 100 nM	100 to 1000 nM	< 100 nM
Cn1cc2cc(-c3ccc4nc(N5CCC(N6CCCC6)C5)ccc4n3)c(O)cc2n1 (centres unmarked) [Compound 125, 5-(6-[[1,3 m ? bipyrrolidin]-1 ? yl]-1,5-naphthyridin-2-yl)-2-methylindazol-6-ol]	100 to 1000 nM	100 to 1000 nM	100 to 1000 nM	100 to 1000 nM	< 100 nM
CN1CCC(N(C)c2ccc3nc(-c4cc5cn(C)nc5cc4O)ccc3n2)CC1 [Compound 126]	< 100 nM	100 to 1000 nM	100 to 1000 nM	100 to 1000 nM	< 100 nM
Cn1cc2cc(-c3ccc4nc(N5CCC(NC(C)(C)C)C5)ccc4n3)c(O)cc2n1 (centres unmarked) [Compound 127, 5-[6-[3-(tert-butylamino)pyrrolidin-1-yl]-1,5-naphthyridin-2-yl]-2-methylindazol-6-ol]	< 100 nM	< 100 nM	< 100 nM	< 100 nM	< 100 nM
CN(C)C1CCN(c2ccc3nc(-c4cc5cn(C)nc5cc4O)ccc3n2)C1 (centres unmarked) [Compound 129, 5-[6-[3-(dimethylamino)pyrrolidin-1-yl]-1,5-naphthyridin-2-yl]-2-methylindazol-6-ol]	100 to 1000 nM	100 to 1000 nM	100 to 1000 nM	100 to 1000 nM	< 100 nM
CN(c1ccc2nc(-c3cc4cn(C)nc4cc3O)ccc2n1)C1CC(C)(C)NC(C)(C)C1 [Compound 130]	> 10000 nM	> 10000 nM	> 10000 nM	> 10000 nM	100 to 1000 nM
CCNC1CCN(c2ccc3nc(-c4cc5cn(C)nc5cc4O)ccc3n2)CC1 [Compound 131, 5-[6-[4-(ethylamino)piperidin-1-yl]-1,5-naphthyridin-2-yl]-2-methylindazol-6-ol]	> 10000 nM	1000 to 10000 nM	1000 to 10000 nM	> 10000 nM	< 100 nM
Cn1cc2cc(-c3ccc4nc(N5CCC(NC(C)(C)C)CC5)ccc4n3)c(O)cc2n1 [Compound 132, 5-[6-[4-(tert-butylamino)piperidin-1-yl]-1,5-naphthyridin-2-yl]-2-methylindazol-6-ol]	> 10000 nM	> 10000 nM	> 10000 nM	> 10000 nM	> 10000 nM
CN(C)C1CCN(c2ccc3nc(-c4cc5cn(C)nc5cc4O)ccc3n2)CC1 [Compound 133, 5-[6-[4-(dimethylamino)piperidin-1-yl]-1,5-naphthyridin-2-yl]-2-methylindazol-6-ol]	1000 to 10000 nM	1000 to 10000 nM	1000 to 10000 nM	1000 to 10000 nM	< 100 nM
Cn1cc2cc(-c3ccc4nc(N5CCN6CCCC6C5)ccc4n3)c(O)cc2n1 (centres unmarked) [Compound 134, 5-(6-[hexahydro-1H-pyrrolo[1,2-a]pyrazin-2-yl]-1,5-naphthyridin-2-yl)-2-methylindazol-6-ol]	1000 to 10000 nM	1000 to 10000 nM	1000 to 10000 nM	1000 to 10000 nM	< 100 nM
Cn1cc2cc(-c3ccc4nc(N5C[C@H]6CC[C@@H](C5)N6)ccc4n3)c(O)cc2n1 [Compound 135, 5-[6 [(1R,5 S)-3,8-diazabicyclo[3.2.1]octan-3-yl]-1,5-naphthyridin-2-yl]-2-methylindazol-6-01]	1000 to 10000 nM	1000 to 10000 nM	1000 to 10000 nM	1000 to 10000 nM	< 100 nM
Cn1cc2cc(-c3ccc4nc(N5CCNCC5)ccc4n3)c(O)cc2n1 [Compound 136]	100 to 1000 nM	1000 to 10000 nM	1000 to 10000 nM	1000 to 10000 nM	< 100 nM
C[C@@H]1CC(c2ccc3nc(-c4cc5cn(C)nc5cc4O)ccc3n2)C[C@H](C)N1 (stereo partly drawn) [Compound 137, 5-[6-[(2R,6S)-2,6-dimethylpiperidin-4-yl]-1,5-naphthyridin-2-yl]-2-methylindazol-6-ol]	1000 to 10000 nM	100 to 1000 nM	100 to 1000 nM	100 to 1000 nM	< 100 nM
CCN1CCC(c2ccc3nc(-c4cc5cn(C)nc5cc4O)ccc3n2)CC1 [Compound 138, 5-[6-(1-ethylpiperidin-4-yl)-1,5-naphthyridin-2-yl]-2-methylindazol-6-ol]	1000 to 10000 nM	100 to 1000 nM	100 to 1000 nM	100 to 1000 nM	< 100 nM
Cn1cc2c(O)c(-c3cc4ccc(C5CCNCC5)nc4cn3)cc(Br)c2n1 [Compound 141]	> 10000 nM	1000 to 10000 nM	1000 to 10000 nM	1000 to 10000 nM	100 to 1000 nM
CN1CCC(c2ccc3nc(-c4cc5cn(C)nc5cc4O)ccc3n2)CC1 [Compound 142, 2-methyl-5-[6-(1-methylpiperidin-4-yl)-1,5-naphthyridin-2-yl]indazol-6-ol]	100 to 1000 nM	100 to 1000 nM	100 to 1000 nM	100 to 1000 nM	< 100 nM
COc1cc2nn(C)cc2cc1-c1ccc2c(F)c(C3CCNCC3)ccc2n1 [Compound 143, 5-fluoro-2-(6-methoxy-2-methylindazol-5-yl)-6-(piperidin-4-yl)quinoline]	> 10000 nM	> 10000 nM	> 10000 nM	> 10000 nM	> 10000 nM
Cn1cc2cc(-c3ccc4cc(C5CCNCC5)c(F)cc4n3)c(O)cc2n1 [Compound 144, 5-[7-fluoro-6-(piperidin-4-yl)quinolin-2-yl]-2-methylindazol-6-01]	> 10000 nM	> 10000 nM	> 10000 nM	> 10000 nM	> 10000 nM
COc1cc2nn(C)cc2cc1-c1ccc2cc(C3CCNCC3)c(F)cc2n1 [Compound 145, 7-fluoro-2-(6-methoxy-2-methylindazol-5-yl)-6-(piperidin-4-yl)quinoline]	> 10000 nM	> 10000 nM	> 10000 nM	> 10000 nM	> 10000 nM
